Data on five molecules can be found in patent US6573248B2, “Monocyclic L-nucleosides, analogs and uses thereof” (ICN Pharmaceuticals, Inc., priority 1996, dated 2003).

The melting point is the temperature of the solid-liquid transition. `NC(=O)c1nn([C@H]2O[C@@H](CO)[C@H](O)[C@@H]2O)nc1C(N)=O` [Compound 32, 2-β-L-Ribofuranosyl-1,2,3-triazole-4,5-dicarboxamide] gave a melting point of 210 to 212 °C.
Take `NC(=O)c1cn([C@H]2O[C@@H](CO)[C@H](O)[C@@H]2O)ccc1=O` [Compound 34, 1-β-L-ribofuranosylpyridine-4-one-3-carboxamide]: the melting point lay in the range of 209 to 211 °C.
`Cc1cc(=O)[nH]c(=O)n1[C@H]1O[C@@H](CO)[C@H](O)[C@@H]1O` [Compound 41, 1-β-L-Ribofuranosyl-6-methyluracil] came in with a melting point of 175 to 177 °C.
In turn, `NC(=O)c1ncn([C@H]2O[C@@H](CO)[C@H](O)[C@@H]2O)c1C(N)=O` [Compound 48, 1-β-L-Ribofuranosylimidazole-4,5-dicarboxamide] showed a melting point of 224 to 226 °C.
`NC(=O)c1nc([C@H]2O[C@@H](CO)[C@H](O)[C@@H]2O)n[nH]1` [Compound 68, 3-β-L-Ribofuranosyl-1,2,4-triazole-5-carboxamide] had a melting point of 193 to 195 °C.
